Measurements taken from patent publication US11807647B2, “Crystal form of hepatitis B surface antigen inhibitor and application thereof” (FUJIAN AKEYLINK BIOTECHNOLOGY CO., LTD., priority 2019, dated 2023).
pEC50: −log10 of the molar value.

How the values were obtained:
HBV-DNA = assay: In vitro HBV activity test, HBV-DNA by quantitative PCR in HepG2.2.15 cells; format: cell-based, Hepatitis B Virus
Description: (§1) 1. Cell Lines: HepG2.2.15 Cells
(§2) 2. Reagents: • Pancreatin (Invitrogen-25300062) • DPBS (Corning-21031CVR) • Dimethyl sulfoxide (Sigma-D2650-100 ML) • High-throughput DNA purification kit (QIAamp 96 DNA Blood Kit, Qiagen-51162) • Quantitative faststart universal probe reagent (FastStart Universal Probe Master, Roche-04914058001) • Hepatitis B surface antigen quantitative detection kit (Autobio, CL 0310) • 3. Consumables and Instruments • 96-well cell culture plate (Corning-3599) • CO2 incubator (HERA-CELL-240) • Optical sealing film (ABI-4311971) • Quantitative PCR 96-well plate (Applied Biosystems-4306737) • Fluorescence quantitative PCR instrument (Applied Biosystems-7500 real time PCR system)
(§3) 1. HepG2.2.15 cells (4×10^4 cells/well) were seeded to a 96-well plate and incubated overnight at 37° C., 5% CO2.
2. On day 2, the compound was diluted to a total of 8 concentrations, with a 3-fold gradient dilution. The compounds at different concentrations were added to culture wells in duplicate. The final concentration of dimethyl sulfoxide in the culture medium was 0.5%. 10 μM ETV was used as 100% inhibition control; 0.5% dimethyl sulfoxide was used as a 0% inhibition control.
3. On day 5, the culture medium was replaced with a fresh culture medium containing the compound.
4. […]

[1] = test system: hepatitis B surface antigen (HBsAg); assay: In vitro HBV activity test, hepatitis B virus S antigen by ELISA in HepG2.2.15 cells; format: cell-based
Description: as §1, §2, §3
2. […]
6.3 Determination of the content of hepatitis B virus S antigen by ELISA involve respectively adding 50 μl of samples and standards to a reaction plate, and then adding 50 μL of enzyme conjugate to each well; shaking same to mix uniformly, and incubating at 37° C. for 60 minutes; washing the plate 5 times with a washing solution, adding 50 μL of luminescent substrate to each well, mixing uniformly, and reacting same in the dark at room temperature for 10 minutes; and finally, detecting chemiluminescence intensity with a microplate reader. […]

hepatitis B = conditions: woodchuck model, used as a single drug; cited from earlier work
[2] = Stability test of crystal form A as a solid under high temperature and high humidity conditions; format: physicochemical; conditions: 40° C./75% humidity
Description: 2 samples of crystal form A of the compound of formula (I) were weighed in parallel (about 100 mg each), placed on the bottom of glass sample bottles, and spread out as a thin layer. The bottles were sealed with aluminum foil paper, and some small holes were made on the aluminum foil paper to ensure that the samples could fully contact with ambient air. The bottles were placed in a constant temperature and humidity chamber at 40° C./75% humidity. The samples placed under the above-mentioned conditions were sampled and tested on day 5 and day 10. The test results were compared with initial test results on day 0.

[3] = Physical stability test of crystal form A as a solid under various temperature, humidity and light conditions; format: physicochemical
Description: 4 samples of crystal form A of the compound of formula (I) were weighed in parallel (about 100 mg each), placed on the bottom of glass sample bottles, and spread out as a thin layer. The bottles were sealed with aluminum foil paper, and some small holes were made on the aluminum foil paper to ensure that the samples could fully contact with ambient air. The prepared 4 samples were placed under a relative humidity of 25° C./92.5%, 60° C., 40° C./75% and light conditions, respectively, to investigate the physical stability of the samples on day 10. In addition, about 100 mg of crystal form A solid of the compound of formula (I) was separately weighed, placed at the bottom of a glass sample bottle, sealed with a screw cap and stored at −20° C. for use as a control sample. On day 10, all samples were taken out, returned to room temperature, and observed for appearance changes, and the crystal forms of the samples were detected by XRPD. By comparing an accelerated sample with the control sample, the physical stability of crystal form A of the compound of formula (I), as a solid, was determined.

[4] = 25° C./92.5% relative humidity (open), Day 10
[5] = 40° C./75% relative humidity (open), Day 10
[6] = Day 0 (−20° C. storage with seal) (control sample), time point Day 10

COCCCOc1cc2c(cc1Cl)-c1cc(=O)c(C(=O)O)cn1[C@H](c1cccs1)O2 [Compound of formula (I)]
inhibition of HBV-DNA (experimental conclusion) (HBV-DNA): effectively inhibit | pEC50 (HBV-DNA; Hepatitis B virus, 192 h, culture medium collected on day 8): 8.95 | inhibition of hepatitis B surface antigen (HBsAg) (experimental conclusion) ([1]; HepG2.2.15 cells): effectively inhibit | pEC50 ([1]; Hepatitis B virus, HepG2.2.15, 192 h, read-out: HBsAg EC50): 8.81

COCCCOc1cc2c(cc1OC)-c1cc(=O)c(C(=O)O)cn1[C@H](C(C)C)C2 [RG7834]
reduction of HBV-DNA (hepatitis B): 1.7 Log | reduction of surface antigens (hepatitis B): 2.57 Log

COCCCOc1cc2c(cc1Cl)-c1cc(=O)c(C(=O)O)cn1[C@H](c1cccs1)O2 [crystal form A]
Appearance ([2]; day 0 (initial)): White powder | Polymorph ([2]; day 0 (initial)): Polymorph A | Purity ([2]; day 0 (initial)): 99.79% | Total impurities ([2]; day 0 (initial)): 0.21% | Appearance ([2]; day 5): White powder | Polymorph ([2]; day 5): Polymorph A | Purity ([2]; day 5): 99.79% | Total impurities ([2]; day 5): 0.21% | Appearance ([2]; day 10): White powder | Polymorph ([2]; day 10): Polymorph A | Purity ([2]; day 10): 99.79% | Total impurities ([2]; day 10): 0.21% | stability (experimental conclusion) ([2]; solid, up to day 10): good stability | Character [3, 4]: White powder | Polymorph [3, 4]: Polymorph A | Purity [3, 4]: 99.80% | Character [3, 5]: White powder | Polymorph [3, 5]: Polymorph A | Purity [3, 5]: 99.79% | Character ([3]; 60° C. (open), Day 10): White powder | Polymorph ([3]; 60° C. (open), Day 10): Polymorph A | Purity ([3]; 60° C. (open), Day 10): 99.75% | Character [3, 6]: White powder | Polymorph [3, 6]: Polymorph A | Purity [3, 6]: 99.79% | Character ([3]; Light, Day 10): White powder | Polymorph ([3]; Light, Day 10): Polymorph A | Purity ([3]; Light, Day 10): 99.71% | stability (experimental conclusion) ([3]; solid, various temperature, humidity and light conditions, day 10): good stability
